Data taken from patent US20190211020A1 (Agency for Science, Technology and Research, priority 2012, published 2019).
Entries after “also recorded” stand apart in the source; their conditions may differ. Like-named read-outs stand apart in the source and are kept apart here.

Columns and labels:
[1] = test system: eIF4G levels in brain sections from Nlgn3 knock-out mice; assay: Immunoblot of eIF4G in brain slices of Nlgn3 knock-out mice; parameters: species or system mouse; conditions: 40 μM CGP57380 or 50 nM ETC7168
Method: For biochemical analyses mice were sacrificed by CO2 inhalation, the cerebellum dissected and rapidly placed in a vibratome chamber and sectioned at 300 μm in cold oxygenated aCSF (in mM: 125 NaCl, 2.5 KCl, 1 MgCl2, 2 CaCl2, 1.25 NaH2PO4, 20 Glucose, 26 NaHCO3, 95% O2/5% CO2). Slices obtained were maintained at 33° C. in oxygenated aCSF and treated with 40 μM CGP57380 or 50 nM ETC7168 for 45 mins and tissues were subsequently snap frozen in liquid nitrogen. Tissues were lysed in 25 mM Tris-HCl, 150 mM NaCl, 1% Triton, 0.2% SDS, 5 mM EDTA, 2 mM DTT, 1 mM NaF, 1 mM Na3VO4 containing protease inhibitor cocktail. The soluble fractions were analyzed by immunoblotting with primary antibodies for 24 hrs at 4° C. followed by detection with secondary antibodies for enhanced chemoluminescent detection. Impact of MNK inhibitors on autism-related behavior was tested in a knock-out mouse model for autism. Nlgn3 knock-out mouse model a human mutation identified in patients with autism^73-74. Compounds were applied in DMSO using intraperitoneal injection in adult male mice (2-4 months of age). Two injections were performed, the first 30 h and a second one 5 h before testing. Behavioral testing was performed using a well-accepted test for autism that consists of quantitative analysis of ultrasonic vocalizations emitted by male mice exposed to females in estrous^75. The apparatus consisted of an arena (40 cm×20 cm) surrounded by 30-cm-high walls made of grey plastic and equipped with a microphone and a video camera. Prior to testing, the estrous cycle of each female mouse was assessed and only females in estrous were kept for testing. Male mice were acclimatized for 3 min in the chamber. Subsequently a female in estrous was introduced in the arena, and ultrasonic vocalizations were recorded for 3 min using the Avisoft system (Avisoft Bioacoustics) with a frequency bandwidth of 30 kHz to 100 kHz. The number and length of ultrasonic vocalizations were quantified. All animal experiments were approved by the cantonal veterinary office Basel-Stadt, Switzerland.

[2] = test system: MV-4-11, P116.c139 and D1.1 cell lines; assay: Cell cytotoxicity assay, the three test cell lines taken together; type: cell-based; conditions: Homo sapiens, MV4-11; regardless of the treatment duration (48 hours or 6 days)
Method: (§1) Cancer cell lines, MV-4-11 (leukemia), P116.c139 (acute T cell leukemia) and D1.1 (acute T cell leukemia), were purchased from ATCC and cultured according to supplier's recommendations. K562 cells (myelogenous leukemia) over-expressing eIF4E, were also used for the cytotoxicity assay. For cells treated for 48 hours, 5000 cells were seeded in 70 μl of growth medium in black, flat-bottom 96-well plate. For cells treated for six days, 1000 cells were seeded in 70 μl of growth medium in black, flat-bottom 96-well plate. […] 50 μl of the diluted compounds was added to the cells and incubated at 37° C. in 5% CO2. After 48 hours or six days treatment, cell viability was determined by CellTiter-Glo Luminescent Cell Viability Assay (Promega, Madison, Wis.). 120 μl of the reagent was added to the cells and luminescence was measured using Tecan Safire Reader. Data was analysed with Graphpad Prism software and the figures represented indicate the half maximal inhibitory concentration (IC50). Error bars denote standard deviation (SD).

[3] = test system: D1.1 (acute T cell leukemia); assay: Cell cytotoxicity assay (CellTiter-Glo), D1.1; type: cell-based; conditions: T-cell, cell viability
Method: as §1

[4] = test system: P116.c139 (acute T cell leukemia); assay: Cell cytotoxicity assay (CellTiter-Glo), P116.c139; type: cell-based; conditions: T-cell, cell viability
Method: as §1

[5] = test system: eIF4E phosphorylation in K562 cells; assay: Western blot of eIF4E phosphorylation in K562 cells; type: cell-based; conditions: various concentrations, 24 h
Method: K562 cell line was obtained from the ATCC, and grown in RPMI supplemented with 10% FCS, L-glutamine, and penicillin/streptomycin.
Exponentially growing cells were plated at 2×10^5 cells/ml, and whole cell lysate processed for western blot analysis using antibodies recognizing eIF4E, phospho-eIF4E (Cell signaling Technology),

[6] = test system: eIF4E Ser209 phosphorylation in Hela cells; assay: MNK cell-based assay (AlphaScreen SureFire, eIF4E Ser209 phosphorylation); conditions: Homo sapiens; eIF4E Ser209 phosphorylation, Hela cells, 2 hours; read-out: IC50 Hela
Procedure, shortened: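 Hela cells (30,000/well) exposed to test compound in serum-free medium for 2 h at 37 °C, then lysed. Phospho-Ser209 eIF4E quantified by AlphaScreen SureFire; IC50 obtained by non-linear regression of signal versus log compound concentration.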

[7] = test system: K562 cells (myelogenous leukemia) over-expressing eIF4E; assay: Cell cytotoxicity assay (CellTiter-Glo), K562; type: cell-based; conditions: for IC50: Homo sapiens, cell viability
Method: as §1

[8] = test system: MV-4-11 (leukemia); assay: Cell cytotoxicity assay (CellTiter-Glo), MV-4-11; type: cell-based; conditions: Homo sapiens, cell viability
Method: as §1

- IC50 [6]: < 1000 nM
Structure (SMILES): N#Cc1ccc(-c2cnc3ccc(-c4ccc(C(=O)N5CCOCC5)cc4)nn23)cc1 [Example 62, 4-(6-(4-(morpholine-4-carbonyl)phenyl)imidazo[1,2-b]pyridazin-3-yl)benzonitrile]
- eIF4G levels in brain sections from Nlgn3 knock-out mice [1]: elevated eIF4G levels
- eIF4G levels in brain sections from Nlgn3 knock-out mice ([1]; listed as ECT7168): elevation in eIF4G levels
- IC50 [2]: ≤ 2000 nM
- IC50 ([3]; 144 h, 6 days, read-out: IC50 after 6 days of treatment, D1.1): 1700 nM
- IC50 ([3]; 48 hours, read-out: IC50 after 48 hours of treatment, D1.1): 1600 nM
- IC50 ([4]; 144 h, 6 days, read-out: IC50 after 6 days of treatment, P116.c139): 300 nM
- IC50 ([4]; 48 hours, read-out: IC50 after 48 hours of treatment, P116.c139): 800 nM
- eIF4E phosphorylation in K562 (BC-CML cell line), Western blot [5]: prevent eIF4E phosphorylation; also recorded: decrease in eIF4E phosphorylation
- IC50 ([7]; K562, 144 h, 6 days, read-out: IC50 after 6 days of treatment, K562): 3.1 µM
- IC50 ([7]; K562, 48 hours, read-out: IC50 after 48 hours of treatment, K562): 7.5 µM
- change of IC50 when treatment duration was extended from 48 hours to 6 days, K562 ([7]; K562 cells over-expressing eIF4E): reduced by more than half
- IC50 ([8]; MV4-11, 144 h, 6 days, read-out: IC50 after 6 days of treatment, MV-4-11): 200 nM
- IC50 ([8]; MV4-11, 48 hours, read-out: IC50 after 48 hours of treatment, MV-4-11): 800 nM
